Data as given in ChEMBL document CHEMBL1949605, “Discovery of aminoheterocycles as potent and brain penetrant prolylcarboxypeptidase inhibitors” (Bioorg Med Chem Lett, 2012).

What was measured:
[1] = molecular target: T1, Lysosomal Pro-X carboxypeptidase (Mus musculus, UniProt Q7TMR0); experiment: Inhibition of mouse recombinant PrCP assessed as angiotensin 3 cleavage after 8 mins by LC/MS analysis
T1 sequence (Q7TMR0 whole entry): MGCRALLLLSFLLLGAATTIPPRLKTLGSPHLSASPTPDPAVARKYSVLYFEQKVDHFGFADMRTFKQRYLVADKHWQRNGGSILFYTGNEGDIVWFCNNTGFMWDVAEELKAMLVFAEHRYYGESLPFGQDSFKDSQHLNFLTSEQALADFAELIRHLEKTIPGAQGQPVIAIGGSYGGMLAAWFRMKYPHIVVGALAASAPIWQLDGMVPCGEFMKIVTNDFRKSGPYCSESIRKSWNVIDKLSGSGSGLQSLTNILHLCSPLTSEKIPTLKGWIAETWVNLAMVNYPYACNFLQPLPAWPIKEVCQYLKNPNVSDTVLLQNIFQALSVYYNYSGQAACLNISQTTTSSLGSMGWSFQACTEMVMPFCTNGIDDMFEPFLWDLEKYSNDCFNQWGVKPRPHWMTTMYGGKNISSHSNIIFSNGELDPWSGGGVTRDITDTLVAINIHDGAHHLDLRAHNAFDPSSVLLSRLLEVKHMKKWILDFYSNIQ

[2] = molecular target: T1, Lysosomal Pro-X carboxypeptidase; experiment: Inhibition of mouse recombinant PrCP using Mca-Ala-Pro-Lys(Dnp)-OH as substrate after 30 mins by fluorescence analysis
[3] = Drug uptake in CF-1 mouse brain at 1 mg/kg, iv measured after 4 hrs post dosing; format: ADME, organism-based; design: dose 1 mg/kg, route intravenous; conditions: read-out: Drug uptake
[4] = Ratio of drug uptake in brain to plasma of CF-1 mouse at 1 mg/kg, iv measured 4 hrs post-dosing; format: ADME, organism-based; design: dose 1 mg/kg, route intravenous; conditions: read-out: BPR
[5] = Plasma concentration in CF-1 mouse at 1 mg/kg, iv measured after 4 hrs post dosing; format: ADME, organism-based; design: dose 1 mg/kg, route intravenous
[6] = molecular target: T2, Lysosomal Pro-X carboxypeptidase (Homo sapiens, UniProt P42785); experiment: Inhibition of human recombinant PrCP using Mca-Ala-Pro-Lys(Dnp)-OH as substrate after 30 mins by fluorescence analysis
T2 sequence (P42785 whole entry): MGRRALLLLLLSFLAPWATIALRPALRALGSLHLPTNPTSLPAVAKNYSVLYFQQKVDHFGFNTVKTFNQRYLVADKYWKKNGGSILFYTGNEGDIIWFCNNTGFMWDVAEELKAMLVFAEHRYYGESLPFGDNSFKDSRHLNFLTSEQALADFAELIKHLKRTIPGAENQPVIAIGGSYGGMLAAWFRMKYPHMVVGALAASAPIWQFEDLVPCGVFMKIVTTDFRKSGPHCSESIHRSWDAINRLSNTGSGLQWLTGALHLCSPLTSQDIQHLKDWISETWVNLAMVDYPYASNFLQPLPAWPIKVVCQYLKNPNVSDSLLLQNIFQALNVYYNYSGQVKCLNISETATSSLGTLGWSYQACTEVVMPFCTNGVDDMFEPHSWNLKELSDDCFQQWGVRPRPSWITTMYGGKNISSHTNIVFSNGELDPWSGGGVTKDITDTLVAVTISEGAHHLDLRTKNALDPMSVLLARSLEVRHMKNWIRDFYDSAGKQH

[7] = molecular target: T3, Lysosomal Pro-X carboxypeptidase (Homo sapiens) (UniProt P42785); experiment: Inhibition of human recombinant PrCP using Mca-Ala-Pro-Lys(Dnp)-OH as substrate at 5 uM after 30 mins by fluorescence analysis
T3 sequence (whole entry): T2 sequence (P42785 whole entry)

`C[C@@H](c1ccc(Cl)cc1)N(C)c1cc(N2CCCC(C(C)(C)O)C2)ncn1` (stereo in doubt; 36a) showed an IC50 [1] of 2210 nM and an IC50 [2] of 146 nM.

Work on `Clc1cc2nc([C@@H]3CCCN3c3cc(N4CCO[C@H](c5ccccc5)C4)ncn3)[nH]c2cc1Cl` yielded an IC50 [1] of over 20000 nM.

`C[C@H](Nc1cc(N2CCCC(C(C)(C)O)C2)ncn1)c1ccc(Cl)cc1` (stereo not given in full) gave a concentration at 4 h [3] of 400 nM, a Kp at 4 h [4] of 1.4 and a concentration at 4 h [5] of 291 nM.

`C[C@@H](c1ccc(Cl)cc1)N(C)c1cc(N2CCCC(C(C)(C)O)C2)ncn1` (mixture of isomers) showed an IC50 [1] of 5000 nM and an IC50 [2] of 797 nM.

Work on `C[C@H](Nc1cc(N[C@H]2CC[C@H](c3ccccc3)CC2)ncn1)c1ccc(Cl)cc1` yielded an IC50 [2] of 75 nM.

In the case of `Clc1cc2nc([C@@H]3CCCN3c3cc(N4CCC(c5ccccn5)C4)ncn3)[nH]c2cc1Cl` (mixture of isomers), the IC50 [1] is reported as over 20000 nM.

`Clc1cc2nc([C@@H]3CCCN3c3cc(N4CCO[C@@H](c5ccccc5)C4)ncn3)[nH]c2cc1Cl` showed a concentration at 4 h [3] of 242 nM, an IC50 [1] of over 20000 nM and a Kp at 4 h [4] of 0.79. It also gave a concentration at 4 h [5] of 304 nM.

`Clc1cc2nc([C@@H]3CCCN3c3cc(N4CCN(Cc5ccccc5)CC4)ncn3)[nH]c2cc1Cl` gave an IC50 [1] of over 20000 nM and an IC50 [2] of 413 nM.

`OC1(c2ccccc2)CCN(c2cc(N3CCC[C@H]3c3nc4cc(Cl)c(Cl)cc4[nH]3)ncn2)C1` (mixture of isomers) showed an IC50 [1] of over 20000 nM.

In the case of `COC(=O)N[C@H]1CC[C@H](Nc2cc(N[C@@H](C)c3ccc(Cl)cc3)ncn2)CC1`, the IC50 [1] is reported as 159 nM and the IC50 [2] is reported as 26 nM.

With `C[C@H](Nc1cc(N[C@H]2CC[C@H](NS(C)(=O)=O)CC2)ncn1)c1ccc(Cl)cc1` the IC50 [2] was 105 nM.

Molecule `Clc1cc2nc([C@@H]3CCCN3c3cc(NCC4CCCCC4)ncn3)[nH]c2cc1Cl` has an IC50 [6] of over 10000 nM.

`FC(F)(F)c1ccccc1-c1ccnc(N2CCC[C@H]2c2nc3cc(Cl)c(Cl)cc3[nH]2)c1` gave an inhibition [7] of 46%.

In the case of `Clc1cc2nc([C@@H]3CCCN3c3cc(N4CCC(Cn5cccn5)CC4)ncn3)[nH]c2cc1Cl`, the IC50 [1] is reported as over 20000 nM and the IC50 [2] is reported as 206 nM.

Molecule `C[C@@H](c1ccc(-c2ccccc2)cc1)[C@H](NC(=O)C(C)(C)N)C(=O)N1CCC[C@H]1c1nc2cc(Cl)c(Cl)cc2[nH]1` has an IC50 [1] of 25 nM.

`COc1ccc(C2CN(c3cc(N4CCC[C@H]4c4nc5cc(Cl)c(Cl)cc5[nH]4)ncn3)CCO2)cc1` (stereo not given in full) showed an IC50 [1] of 9000 nM and an IC50 [2] of 46 nM.

In the case of `Clc1cc2nc([C@@H]3CCCN3c3cc(N4CCCC(N5CCc6c(cccc6-c6cccnc6)C5)C4)ncn3)[nH]c2cc1Cl` (stereo in doubt; 28b), the IC50 [1] is reported as 355 nM and the IC50 [2] is reported as 18 nM.

Work on `CC(C)(O)C1CCCN(c2cc(N3CCC[C@H]3c3nc4cc(Cl)c(Cl)cc4[nH]3)ncn2)C1` (mixture of isomers) yielded an IC50 [1] of over 20000 nM.

In the case of `Clc1cc2nc([C@@H]3CCCN3c3cc(N4CCCC(N5CCc6c(cccc6-c6cccnc6)C5)C4)ncn3)[nH]c2cc1Cl` (stereo in doubt; 28a), the concentration at 4 h [3] is reported as 108 nM, the IC50 [1] is reported as 345 nM and the Kp at 4 h [4] is reported as 0.29. The IC50 [2] was 10 nM and the concentration at 4 h [5] was 367 nM.
